Activity calls are given as the source filed them. The calls are words filed in the database; no cut-off is given here.
What was measured:
[1] = tested on: UO-31; assay: Growth inhibition of human UO31 cells incubated for 48 hrs by sulforhodamine B assay; format: functional; conditions: UO-31, 48 h
[2] = tested on: SF-295; assay: Growth inhibition of human SF295 cells assessed as cell growth at 10^-7 M incubated for 48 hrs by sulforhodamine B assay relative to control; format: functional; conditions: SF-295, 48 h, read-out: Activity
[3] = tested on: SF-268; assay: Growth inhibition of human SF268 cells assessed as cell growth at 10^-7 M incubated for 48 hrs by sulforhodamine B assay relative to control; format: functional; conditions: SF-268, 48 h, read-out: Activity
[4] = tested on: MDA-MB-435; assay: Growth inhibition of human MDA-MB-435 cells assessed as cell growth at 10^-8 M incubated for 48 hrs by sulforhodamine B assay relative to control; format: functional; conditions: MDA-MB-435, 48 h, read-out: Activity
[5] = tested on: MCF7; assay: Growth inhibition of human MCF7 cells assessed as cell growth at 10^-4 M incubated for 48 hrs by sulforhodamine B assay relative to control; format: functional; conditions: MCF7, 48 h, read-out: Activity
[6] = tested on: Hs-578T; assay: Growth inhibition of human Hs 578T cells assessed as cell growth at 10^-7 M incubated for 48 hrs by sulforhodamine B assay relative to control; format: functional; conditions: read-out: Activity
[7] = tested on: SK-MEL-5; assay: Growth inhibition of human SK-MEL-5 cells assessed as cell growth at 10^-5 M incubated for 48 hrs by sulforhodamine B assay relative to control; format: functional; conditions: SK-MEL-5, 48 h, read-out: Activity
[8] = tested on: NCI-H460; assay: Growth inhibition of human NCI-H460 cells incubated for 48 hrs by sulforhodamine B assay; format: functional; conditions: NCI-H460, 48 h
[9] = tested on: HOP-62; assay: Growth inhibition of human HOP62 cells assessed as cell growth at 10^-4 M incubated for 48 hrs by sulforhodamine B assay relative to control; format: functional; conditions: HOP-62, 48 h, read-out: Activity
[10] = tested on: NCI/ADR-RES; assay: Growth inhibition of human NCI/ADR-RES cells assessed as cell growth at 10^-8 M incubated for 48 hrs by sulforhodamine B assay relative to control; format: functional; conditions: read-out: Activity
[11] = tested on: HCC 2998; assay: Growth inhibition of human HCC2998 cells assessed as cell growth at 10^-8 M incubated for 48 hrs by sulforhodamine B assay relative to control; format: functional; conditions: HCC 2998, 48 h, read-out: Activity
[12] = tested on: IGROV-1; assay: Growth inhibition of human IGROV1 cells assessed as cell growth at 10^-8 M incubated for 48 hrs by sulforhodamine B assay relative to control; format: functional; conditions: IGROV-1, 48 h, read-out: Activity
[13] = tested on: HL-60; assay: Induction of apoptosis in human HL60 cells assessed as early apoptotic cells by propidium iodide/Annexin V staining based flow cytometry (reference value: 0.37%); format: functional
[14] = tested on: UACC-62; assay: Growth inhibition of human UACC62 cells assessed as cell growth at 10^-4 M incubated for 48 hrs by sulforhodamine B assay relative to control; format: functional; conditions: UACC-62, 48 h, read-out: Activity
[15] = tested on: NCI-H522; assay: Growth inhibition of human NCI-H522 cells incubated for 48 hrs by sulforhodamine B assay; format: functional; conditions: NCI-H522, 48 h
[16] = tested on: EKVX; assay: Growth inhibition of human EKVX cells incubated for 48 hrs by sulforhodamine B assay; format: functional
[17] = tested on: HCT-116; assay: Growth inhibition of human HCT116 cells assessed as cell growth at 10^-5 M incubated for 48 hrs by sulforhodamine B assay relative to control; format: functional; conditions: HCT-116, 48 h, read-out: Activity
[18] = tested on: M14; assay: Growth inhibition of human M14 cells incubated for 48 hrs by sulforhodamine B assay; format: functional; conditions: M14, 48 h
[19] = tested on: M14; assay: Growth inhibition of human M14 cells assessed as cell growth at 10^-6 M incubated for 48 hrs by sulforhodamine B assay relative to control; format: functional; conditions: M14, 48 h, read-out: Activity
[20] = tested on: HT-29; assay: Growth inhibition of human HT-29 cells assessed as cell growth at 10^-8 M incubated for 48 hrs by sulforhodamine B assay relative to control; format: functional; conditions: HT-29, 48 h, read-out: Activity
[21] = tested on: NCI/ADR-RES; assay: Growth inhibition of human NCI/ADR-RES cells incubated for 48 hrs by sulforhodamine B assay; format: functional
[22] = tested on: MOLT-4; assay: Growth inhibition of human MOLT4 cells assessed as cell growth at 10^-7 M incubated for 48 hrs by sulforhodamine B assay relative to control; format: functional; conditions: MOLT-4, 48 h, read-out: Activity
[23] = tested on: DU-145; assay: Growth inhibition of human DU145 cells assessed as cell growth at 10^-4 M incubated for 48 hrs by sulforhodamine B assay relative to control; format: functional; conditions: DU-145, 48 h, read-out: Activity
[24] = tested on: MDA-MB-435; assay: Induction of apoptosis in human MDA-MB-435 cells assessed as increase in caspase-9 expression by qRT-PCR method; format: functional, cell-based
[25] = tested on: U-251; assay: Growth inhibition of human U251 cells assessed as cell growth at 10^-5 M incubated for 48 hrs by sulforhodamine B assay relative to control; format: functional; conditions: U-251, 48 h, read-out: Activity
[26] = tested on: NCI-H23; assay: Growth inhibition of human NCI-H23 cells assessed as cell growth at 10^-7 M incubated for 48 hrs by sulforhodamine B assay relative to control; format: functional; conditions: NCI-H23, 48 h, read-out: Activity
[27] = tested on: SK-MEL-2; assay: Growth inhibition of human SK-MEL-2 cells assessed as cell growth at 10^-4 M incubated for 48 hrs by sulforhodamine B assay relative to control; format: functional; conditions: SK-MEL-2, 48 h, read-out: Activity
[28] = tested on: OVCAR-3; assay: Growth inhibition of human OVCAR3 cells assessed as cell growth at 10^-7 M incubated for 48 hrs by sulforhodamine B assay relative to control; format: functional; conditions: OVCAR-3, 48 h, read-out: Activity
[29] = tested on: CCRF-CEM; assay: Growth inhibition of human CCRF-CEM cells assessed as cell growth at 10^-6 M incubated for 48 hrs by sulforhodamine B assay relative to control; format: functional; conditions: read-out: Activity
[30] = read-out: LC50 (the source's name)
[31] = read-out: pLC50 (the source's name) (converted)

## CCS/C(Nc1ccccc1)=C(\C#N)C(=O)Nc1ccc(OC)cc1
[1]; read-out: GI50
  GI50: 5.49 µM
[1]; [30]
  CC50: > 100 µM
[1]; read-out: TGI
  TGI: > 100 µM
[1]; read-out: pGI50 (converted)
  GI50: 5.5 µM
[1]; [31]
  CC50: > 100 µM
[1]; read-out: pTGI
  TGI: > 100 µM
[2]
  growth at 0.1 µM: 90%
[3]
  growth at 0.1 µM: 97%
[4]
  growth at 0.01 µM: 100%
[5]
  growth at 100 µM: 6%
[6]
  growth at 0.1 µM: 96%
[7]
  growth at 10 µM: -8%
[8]; read-out: GI50
  GI50: 3.14 µM
[8]; read-out: LC50
  LC50: > 100 µM
[8]; read-out: TGI
  TGI: 34.2 µM
[8]; read-out: pGI50 (converted)
  GI50: 3.16 µM
[8]; read-out: pLC50 (converted)
  LC50: > 100 µM
[8]; read-out: pTGI (converted)
  TGI: 33.9 µM
[9]
  growth at 100 µM: 37%
[10]
  growth at 0.01 µM: 100%
[11]
  growth at 0.01 µM: 102%
[12]
  growth at 0.01 µM: 103%
[13]
  Activity: 4.89%
[14]
  growth at 100 µM: 6%
[15]; read-out: GI50
  GI50: 2.21 µM
[15]; [30]
  CC50: > 100 µM
[15]; read-out: TGI
  TGI: 9.68 µM
[15]; read-out: pGI50 (converted)
  GI50: 2.19 µM
[15]; [31]
  CC50: > 100 µM
[15]; read-out: pTGI (converted)
  TGI: 9.77 µM
[16]; read-out: GI50
  GI50: 4.42 µM
[16]; [30]
  CC50: > 100 µM
[16]; read-out: TGI
  TGI: > 100 µM
[16]; read-out: pGI50 (converted)
  GI50: 4.47 µM
[16]; [31]
  CC50: > 100 µM
[16]; read-out: pTGI
  TGI: > 100 µM
[17]
  growth at 10 µM: 3%
[18]; read-out: GI50
  GI50: 2.27 µM
[18]; [30]
  CC50: > 100 µM
[18]; read-out: TGI
  TGI: 87.4 µM
[18]; read-out: pGI50 (converted)
  GI50: 2.29 µM
[18]; [31]
  CC50: > 100 µM
[18]; read-out: pTGI (converted)
  TGI: 87.1 µM
[19]
  growth at 1 µM: 72%
[20]
  growth at 0.01 µM: 109%
[21]; read-out: GI50
  GI50: 2.62 µM
[21]; [30]
  CC50: > 100 µM
[21]; read-out: TGI
  TGI: > 100 µM
[21]; read-out: pGI50 (converted)
  GI50: 2.63 µM
[21]; [31]
  CC50: > 100 µM
[21]; read-out: pTGI
  TGI: > 100 µM
[22]
  growth at 0.1 µM: 90%
[23]
  growth at 100 µM: -6%
[24]
  Activity: Active
[25]
  growth at 10 µM: 26%
[26]
  growth at 0.1 µM: 99%
[27]
  growth at 100 µM: 14%
[28]
  growth at 0.1 µM: 97%
[29]
  growth at 1 µM: 64%

## CCS/C(Nc1ccccc1)=C(\C#N)C(=O)N/N=C\c1ccc(Cl)cc1Cl
[1]; read-out: GI50
  GI50: 6.91 µM
[1]; [30]
  CC50: > 100 µM
[1]; read-out: TGI
  TGI: > 100 µM
[1]; read-out: pGI50 (converted)
  GI50: 6.92 µM
[1]; [31]
  CC50: > 100 µM
[1]; read-out: pTGI
  TGI: > 100 µM
[2]
  growth at 0.1 µM: 88%
[3]
  growth at 0.1 µM: 94%
[4]
  growth at 0.01 µM: 95%
[5]
  growth at 100 µM: 9%
[6]
  growth at 0.1 µM: 92%
[7]
  growth at 10 µM: -6%
[8]; read-out: GI50
  GI50: 3.16 µM
[8]; read-out: LC50
  LC50: > 100 µM
[8]; read-out: TGI
  TGI: > 100 µM
[8]; read-out: pGI50 (converted)
  GI50: 3.16 µM
[8]; read-out: pLC50 (converted)
  LC50: > 100 µM
[8]; read-out: pTGI (converted)
  TGI: > 100 µM
[9]
  growth at 100 µM: 8%
[10]
  growth at 0.01 µM: 98%
[11]
  growth at 0.01 µM: 101%
[12]
  growth at 0.01 µM: 106%
[13]
  Activity: 7.69%
[14]
  growth at 100 µM: 12%
[15]; read-out: GI50
  GI50: 1.84 µM
[15]; [30]
  CC50: > 100 µM
[15]; read-out: pGI50 (converted)
  GI50: 1.82 µM
[15]; [31]
  CC50: > 100 µM
[16]; read-out: GI50
  GI50: 5.09 µM
[16]; [30]
  CC50: > 100 µM
[16]; read-out: TGI
  TGI: > 100 µM
[16]; read-out: pGI50 (converted)
  GI50: 5.13 µM
[16]; [31]
  CC50: > 100 µM
[16]; read-out: pTGI
  TGI: > 100 µM
[17]
  growth at 10 µM: 7%
[18]; read-out: GI50
  GI50: 2.01 µM
[18]; [30]
  CC50: > 100 µM
[18]; read-out: TGI
  TGI: 9.61 µM
[18]; read-out: pGI50 (converted)
  GI50: 2 µM
[18]; [31]
  CC50: > 100 µM
[18]; read-out: pTGI (converted)
  TGI: 9.55 µM
[19]
  growth at 1 µM: 72%
[20]
  growth at 0.01 µM: 105%
[21]; read-out: GI50
  GI50: 3.16 µM
[21]; [30]
  CC50: > 100 µM
[21]; read-out: TGI
  TGI: > 100 µM
[21]; read-out: pGI50 (converted)
  GI50: 3.16 µM
[21]; [31]
  CC50: > 100 µM
[21]; read-out: pTGI
  TGI: > 100 µM
[22]
  growth at 0.1 µM: 82%
[23]
  growth at 100 µM: 8%
[24]
  Activity: Active
[25]
  growth at 10 µM: 20%
[26]
  growth at 0.1 µM: 97%
[27]
  growth at 100 µM: -9%
[28]
  growth at 0.1 µM: 97%
[29]
  growth at 1 µM: 82%

Source: ChEMBL document CHEMBL4145553, “Design, synthesis, and biological evaluation of novel amide and hydrazide based thioether analogs targeting Histone deacteylase (HDAC) enzymes” (Eur J Med Chem, 2018)
